{
  "source": "paper PMC11148772",
  "about": "“Inhibition of protein translational machinery in triple-negative breast cancer as a promising therapeutic strategy” (Cell Reports Medicine, 2024)",
  "key": {"[1]": {"tested_on": "TNBC cells (MDA-MB-231, MDA-MB-468, SUM159, 4T1, EMT6)", "test": "Clonogenic (colony-formation) assay", "assay_type": "cell-based", "method": "We performed a clonogenic assay to check the effect of SU056 on clonal expansion potential of MDA-MB-231, MDA-MB-468, SUM159, 4T1, EMT6, and E0771 cells on tissue culture plates. MDA-MB-231 (1000 cells), MDA-MB-468 (1000 cells), SU159 (300 cells), 4T1 (300 cells), and EMT6 (300 cells), were seeded and grown for 24 h in complete media onto 12-well culture plate. Cells were treated with the specific concentrations of SU056 for 7–10 days in complete media. Plates were processed for crystal violet staining, and the number of colonies was counted for each well. Colonies were scanned for confluency area using a Tecan multimode plate reader."}, "[2]": {"tested_on": "TNBC cells (MDA-MB-231, MDA-MB-468, SUM159)", "test": "Immunoblot assay of cell lysates", "assay_type": "cell-based, human", "method": "MDA-MB-231, MDA-MB-468, and SUM159 cells were grown to 60–70% confluency and treated with DMSO and SU056 (1 μM) for 12 and 24 h. After the specific treatment time was over, total cell lysates were prepared in non-denaturing lysis buffer. For protein lysate from tumors: randomly selected frozen sample; three from vehicle and SU056 treated group were homogenized in non-denaturing lysis buffer at 4°C for 5 min. 10 μg of protein lysate per sample was resolved on 8–16% SDS-PAGE. Membranes were probed with specific primary antibodies followed by detection with HRP-conjugated appropriate secondary antibodies, visualized by enhanced chemiluminescence detection system, and imaged using an iBright imaging system (Thermo Fisher, USA)."}, "CA1262-PDX-TNBC": {"tested_on": "CA1262-PDX-TNBC", "test": "Patient-derived xenograft", "assay_type": "in vivo, mouse", "details": "50 mg/kg orally, NSG mice", "source_text": "(§1) Different patient-derived xenograft (PDX) of TNBC were used in this study. The Institutional Animal Care & Use Program of Oregon Health and Science University approved the protocol (#IP00003247). SUTI151-PDX-TNBC was kindly provided by Stefanie S. Jeffrey, MD, Stanford University, CA, USA.[48] CA1616-PDX-TNBC, CA1262-PDX-TNBC, and MA2821-PDX-TNBC were procured from the NCI Patient-Derived Models Repository (PDMR). Information of the PDX samples from NCI can be accessed at https://pdmr.cancer.gov/models/pdx.htm. 6–8 weeks old NSG (female) mice were anesthetized with isoflurane and tumor cells were xenografted into 5th mammary fat pad. Post-xenograft, once tumors reached a size of 50–100 mm^3, SU056 treatment (50 mg/kg body weight administered by oral gavage, 5 days per week) was started. At the end of treatment, mice were euthanized under deep anesthesia and tumors were surgically removed, measured, and weighed."}, "MA2821-PDX-TNBC": {"tested_on": "MA2821-PDX-TNBC", "test": "Patient-derived xenograft", "assay_type": "in vivo, mouse", "details": "50 mg/kg orally, NSG mice", "source_text": "as §1"}, "CA1616-PDX-TNBC": {"tested_on": "CA1616-PDX-TNBC", "test": "Patient-derived xenograft", "assay_type": "in vivo, mouse", "details": "50 mg/kg orally, NSG mice", "source_text": "as §1"}, "SUTI151-PDX-TNBC": {"tested_on": "SUTI151-PDX-TNBC", "test": "Patient-derived xenograft", "assay_type": "in vivo, mouse", "details": "50 mg/kg orally, NSG mice", "source_text": "as §1"}, "[3]": {"test": "Body weight during tumor xenograft treatment", "assay_type": "in vivo, mouse", "details": "50 mg/kg", "method": "(§2) Female NOD-Scid gamma (NSG, Homozygous for Prkdc, Hemizygous for Il2rg<tm1Wjl>) (Strain #005557) and Balb/cJ (Strain#000651) (7–8 weeks old) mice were purchased from the Jackson Laboratory and housed under standard laboratory conditions. The Institutional Animal Care & Use Program of Oregon Health and Science University approved the protocol (#IP00003247). MDA-MB-231 (3 x 10^6), MDA-MB-468 (5 x 10^6), 4T1 (1 x 10^5) and EMT6 (1 x 10^5) cells were suspended in 100 μL of 1x PBS and injected subcutaneously in each mouse. Tumor growth was monitored regularly and once the tumors reached approximately around 50–100 mm^3, treatment with SU056 (50 mg/kg body weight given by oral gavage, 5 days per week) was started. Tumor size and body weight were measured once a week. At the end of treatment, mice were euthanized via deep anesthesia followed by cervical dislocation. Tumors were excised and weighed. Tumor samples were processed for immunoblotting for different markers.\nData S2. Effect of SU056 treatment on body weight, metastatic potential and pharmacokinetic profiling of SU056, related to Figure 2 and 3\nHuman, mouse and PDX models of TNBC were used for tumor xenograft studies. SU056 treatment was started when tumors reached around ~25-50 mm3 and continued until the experiment reached its 3-week endpoint. Body weight was monitored throughout the study to understand any change in dietary pattern. […]"}, "4T1 tumor": {"tested_on": "4T1 tumor", "test": "Syngeneic mouse TNBC model", "assay_type": "in vivo", "details": "50 mg/kg oral gavage, Balb/cJ mice", "method": "as §2"}, "EMT6 tumor": {"tested_on": "EMT6 tumor", "test": "Syngeneic mouse TNBC model", "assay_type": "in vivo", "details": "50 mg/kg oral gavage, Balb/cJ mice", "method": "as §2"}},
  "data": [
    {"smiles": "O=C1OCC2=C1C(c1cccc(F)c1)c1cc3c(cc1N2CCO)OCO3", "note": "(stereo not drawn) [SU056, 9-(3-fluorophenyl)-5-(2-hydroxyethyl)-6,9-dihydro-[1,3]dioxolo[4,5-g]furo[3,4-b]quinolin-8(5H)-one]", "values": [
      {"measurement": "clonogenic potential", "setting": "[1]; 0.5 μM, all TNBC cell lines", "value": "strong suppression"},
      {"measurement": "number of colonies formed compared to untreated controls", "setting": "[1]; 0.1, 0.25, and 0.5 μM, 7–10 days", "value": "significantly decreased"},
      {"measurement": "RPLs (RPL36, RPL35, RPL32, RPL23A, RPL15, RPL11, RPL9)", "setting": "[2]; 1 μM, 12 and 24 h", "value": "decreased"},
      {"measurement": "YB-1 expression", "setting": "[2]; 1 μM, 12 and 24 h", "value": "decreased"},
      {"measurement": "c-Myc expression", "setting": "[2]; 1 μM, 12 and 24 h", "value": "decreased"},
      {"measurement": "expression of RPSs", "setting": "[2]; 1 μM, 12 and 24 h", "value": "lower expression"},
      {"measurement": "levels of translation initiation factors", "setting": "[2]; 1 μM, 12 and 24 h", "value": "decreased"},
      {"measurement": "overall levels of mTOR", "setting": "[2]; 1 μM, 12 and 24 h", "value": "decreased"},
      {"measurement": "phosphorylation of mTOR (S2448)", "setting": "[2]; 1 μM, 12 and 24 h", "value": "inhibited"},
      {"measurement": "phosphorylation of p70S6 kinase (T389 and S371) and S6R (S235/S236)", "setting": "[2]; 1 μM, 12 and 24 h", "value": "decreased"},
      {"measurement": "phospho-histone H3 (Ser10), mitotic phase marker", "setting": "[2]; 12 and 24 h", "value": "arrests TNBC cells in the mitotic phase"},
      {"measurement": "integrated stress response activation (PERK, eIF2α, ATF4)", "setting": "[2]; MDA-MB-231 and MDA-MB-468, 1 μM", "value": "did not induce"},
      {"measurement": "cell cycle regulatory proteins (p21 and p27)", "setting": "[2]; MDA-MB-231 and MDA-MB-468, 1 μM, 12 and 24 h", "value": "moderate increase"},
      {"measurement": "tumor volume reduced compared to vehicle control", "setting": "CA1262-PDX-TNBC", "value": 49.8, "unit": "%"},
      {"measurement": "tumor weight decreased", "setting": "CA1262-PDX-TNBC", "value": 34.67, "unit": "%"},
      {"measurement": "tumor growth decreased", "setting": "MA2821-PDX-TNBC", "value": 51.35, "unit": "%"},
      {"measurement": "tumor weight reduced", "setting": "MA2821-PDX-TNBC", "value": 48.89, "unit": "%"},
      {"measurement": "tumor volume reduced compared to vehicle control", "setting": "CA1616-PDX-TNBC", "value": 63.1, "unit": "%"},
      {"measurement": "tumor weight decreased", "setting": "CA1616-PDX-TNBC", "value": 43.6, "unit": "%"},
      {"measurement": "reduction in tumor weight", "setting": "SUTI151-PDX-TNBC", "value": 29, "unit": "%"},
      {"measurement": "tumor volume reduced compared to control", "setting": "SUTI151-PDX-TNBC", "value": 37, "unit": "%"},
      {"measurement": "body weight of animals throughout treatment", "setting": "[3]; MDA-MB-231, MDA-MB-468, 4T1, EMT6 models", "value": "remained the same"},
      {"measurement": "body weight of animals throughout treatment", "setting": "[3]; PDX models", "value": "remained the same"},
      {"measurement": "primary tumor load reduced compared with vehicle control", "setting": "4T1 tumor", "value": 45.53, "unit": "%"},
      {"measurement": "tumor weight reduced compared with vehicle control", "setting": "4T1 tumor", "value": 61, "unit": "%"},
      {"measurement": "reduction in tumor weight", "setting": "EMT6 tumor", "value": 42.53, "unit": "%"},
      {"measurement": "tumor growth decreased in comparison to control", "setting": "EMT6 tumor", "value": 37.47, "unit": "%"}
    ]}
  ]
}
